Reference: the kinase profiling compilation of Christmann-Franck et al. (2016)

Columns and labels:
Experiment in all cases: radiometric filter-binding kinase assay
IRAK1 (human) = IRAK1 (human) (UniProt P51617)
EIF2AK3 (human) = EIF2AK3 (human) (UniProt Q9NZJ5)
STK33 (human) = STK33 (human) (UniProt Q9BYT3)
CDK9 CCNT1 (human) = CDK9 CCNT1 (human) (UniProt P50750+O60563); settings: compound 0.1 µM
MAP4K3 (human) = MAP4K3 (human) (UniProt Q8IVH8)
TTBK2 (human) = TTBK2 (human) (UniProt Q6IQ55)
PRKCG (human) = PRKCG (human) (UniProt P05129)
TESK1 (human) = TESK1 (human) (UniProt Q15569)
MYLK (human) = MYLK (human) (UniProt Q15746)
SIK2 (human) = SIK2 (human) (UniProt Q9H0K1)
TSSK1B (human) = TSSK1B (human) (UniProt Q9BXA7)
TLK1 (human) = TLK1 (human) (UniProt Q9UKI8)
DDR2 (human) = DDR2 (human) (UniProt Q16832)
MAPK7 (human) = MAPK7 (human) (UniProt Q13164)
ABL1 (human) = ABL1 (human) (UniProt P00519)
[1] = tested on: OXSR1 (human), O95747 [T185E]
ZAP70 (human) = ZAP70 (human) (UniProt P43403)
CSNK1G2 (human) = CSNK1G2 (human) (UniProt P78368)
MAP4K5 (human) = MAP4K5 (human) (UniProt Q9Y4K4)
PDGFRA (human) = PDGFRA (human) (UniProt P16234)
SIK3 (human) = SIK3 (human) (UniProt Q9Y2K2)
[2] = biological target: PRKAA1 PRKAB2 PRKAG1 (human) (UniProt O43741+Q13131+P54619)
STK24 (human) = STK24 (human) (UniProt Q9Y6E0)
STK16 (human) = STK16 (human) (UniProt O75716)
WNK1 (human) = WNK1 (human) (UniProt Q9H4A3)
PTK6 (human) = PTK6 (human) (UniProt Q13882)
[3] = tested on: TGFBR1 (human), P36897 [T204D]
ULK1 (human) = ULK1 (human) (UniProt O75385)
ULK2 (human) = ULK2 (human) (UniProt Q8IYT8)
TTBK1 (human) = TTBK1 (human) (UniProt Q5TCY1)

WNK1 (human), sequence (Q9H4A3 whole entry, looked up): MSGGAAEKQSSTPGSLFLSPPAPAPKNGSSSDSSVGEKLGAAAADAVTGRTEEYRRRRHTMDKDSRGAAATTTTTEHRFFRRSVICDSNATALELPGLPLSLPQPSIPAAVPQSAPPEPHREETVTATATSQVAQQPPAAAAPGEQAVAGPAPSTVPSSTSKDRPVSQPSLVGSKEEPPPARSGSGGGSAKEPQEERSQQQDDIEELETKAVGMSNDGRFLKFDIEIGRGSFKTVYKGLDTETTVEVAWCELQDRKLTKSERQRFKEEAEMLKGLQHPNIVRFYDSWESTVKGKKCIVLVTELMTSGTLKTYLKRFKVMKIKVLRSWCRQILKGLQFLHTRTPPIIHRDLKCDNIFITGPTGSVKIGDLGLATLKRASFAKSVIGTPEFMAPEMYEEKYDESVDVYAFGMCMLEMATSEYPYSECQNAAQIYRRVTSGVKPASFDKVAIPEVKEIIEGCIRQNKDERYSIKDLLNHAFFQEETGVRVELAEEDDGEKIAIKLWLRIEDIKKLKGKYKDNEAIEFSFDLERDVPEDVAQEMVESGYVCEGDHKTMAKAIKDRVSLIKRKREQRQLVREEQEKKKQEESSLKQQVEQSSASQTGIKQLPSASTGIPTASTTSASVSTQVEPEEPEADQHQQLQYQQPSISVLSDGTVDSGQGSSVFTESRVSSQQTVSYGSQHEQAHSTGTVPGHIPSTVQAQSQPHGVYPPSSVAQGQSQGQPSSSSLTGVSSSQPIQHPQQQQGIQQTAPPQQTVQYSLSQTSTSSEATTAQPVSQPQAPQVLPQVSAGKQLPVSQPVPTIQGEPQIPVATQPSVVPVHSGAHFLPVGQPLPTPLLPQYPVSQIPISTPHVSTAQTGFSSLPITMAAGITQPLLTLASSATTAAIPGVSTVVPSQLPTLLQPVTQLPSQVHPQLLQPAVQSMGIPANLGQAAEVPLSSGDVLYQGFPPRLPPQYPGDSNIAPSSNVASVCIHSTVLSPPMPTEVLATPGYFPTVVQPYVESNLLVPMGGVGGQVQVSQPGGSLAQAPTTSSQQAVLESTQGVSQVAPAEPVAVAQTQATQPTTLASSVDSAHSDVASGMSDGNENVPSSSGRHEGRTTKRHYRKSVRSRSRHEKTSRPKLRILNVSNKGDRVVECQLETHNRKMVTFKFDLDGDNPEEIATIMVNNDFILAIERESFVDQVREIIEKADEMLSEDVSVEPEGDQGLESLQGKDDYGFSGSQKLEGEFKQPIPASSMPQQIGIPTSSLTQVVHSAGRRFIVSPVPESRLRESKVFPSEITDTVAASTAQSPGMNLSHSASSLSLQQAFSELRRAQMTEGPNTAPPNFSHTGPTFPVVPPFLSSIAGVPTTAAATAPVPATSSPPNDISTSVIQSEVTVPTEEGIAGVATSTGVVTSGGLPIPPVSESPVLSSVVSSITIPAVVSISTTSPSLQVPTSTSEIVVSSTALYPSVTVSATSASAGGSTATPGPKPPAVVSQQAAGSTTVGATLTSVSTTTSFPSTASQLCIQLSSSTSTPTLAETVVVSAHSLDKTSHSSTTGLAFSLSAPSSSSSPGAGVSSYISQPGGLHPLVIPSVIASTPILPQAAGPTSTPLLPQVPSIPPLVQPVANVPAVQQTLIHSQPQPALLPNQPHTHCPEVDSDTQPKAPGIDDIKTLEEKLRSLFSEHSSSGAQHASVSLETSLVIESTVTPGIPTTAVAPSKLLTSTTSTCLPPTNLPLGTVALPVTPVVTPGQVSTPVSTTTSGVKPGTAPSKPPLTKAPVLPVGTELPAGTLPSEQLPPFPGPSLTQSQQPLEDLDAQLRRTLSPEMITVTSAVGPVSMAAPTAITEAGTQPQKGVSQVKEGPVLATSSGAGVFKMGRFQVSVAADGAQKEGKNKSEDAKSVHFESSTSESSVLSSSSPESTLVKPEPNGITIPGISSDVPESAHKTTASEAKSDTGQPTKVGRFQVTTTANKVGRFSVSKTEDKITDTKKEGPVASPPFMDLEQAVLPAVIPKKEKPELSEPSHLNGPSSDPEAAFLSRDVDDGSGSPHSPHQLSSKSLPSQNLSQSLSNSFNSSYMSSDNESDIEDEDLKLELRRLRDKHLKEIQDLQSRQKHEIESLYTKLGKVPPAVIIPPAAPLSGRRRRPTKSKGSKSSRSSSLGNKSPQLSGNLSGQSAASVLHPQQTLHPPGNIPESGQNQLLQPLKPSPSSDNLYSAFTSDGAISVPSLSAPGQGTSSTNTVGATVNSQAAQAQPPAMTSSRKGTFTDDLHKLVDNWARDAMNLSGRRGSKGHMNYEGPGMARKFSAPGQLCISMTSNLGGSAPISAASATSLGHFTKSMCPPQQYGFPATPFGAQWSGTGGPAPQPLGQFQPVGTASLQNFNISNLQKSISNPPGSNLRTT
TSSK1B (human), sequence (Q9BXA7 whole entry, looked up): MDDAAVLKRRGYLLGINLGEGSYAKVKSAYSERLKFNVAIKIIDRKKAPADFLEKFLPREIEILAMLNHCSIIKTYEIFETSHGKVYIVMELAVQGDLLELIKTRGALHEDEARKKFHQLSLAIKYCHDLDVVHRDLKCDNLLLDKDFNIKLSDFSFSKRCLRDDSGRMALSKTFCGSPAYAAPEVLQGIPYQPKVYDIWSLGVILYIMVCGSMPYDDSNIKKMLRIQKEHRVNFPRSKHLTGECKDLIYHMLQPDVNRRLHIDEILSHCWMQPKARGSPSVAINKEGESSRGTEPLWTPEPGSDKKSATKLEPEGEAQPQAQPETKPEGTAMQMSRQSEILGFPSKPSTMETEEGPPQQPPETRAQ
SIK2 (human), sequence (Q9H0K1 whole entry, looked up): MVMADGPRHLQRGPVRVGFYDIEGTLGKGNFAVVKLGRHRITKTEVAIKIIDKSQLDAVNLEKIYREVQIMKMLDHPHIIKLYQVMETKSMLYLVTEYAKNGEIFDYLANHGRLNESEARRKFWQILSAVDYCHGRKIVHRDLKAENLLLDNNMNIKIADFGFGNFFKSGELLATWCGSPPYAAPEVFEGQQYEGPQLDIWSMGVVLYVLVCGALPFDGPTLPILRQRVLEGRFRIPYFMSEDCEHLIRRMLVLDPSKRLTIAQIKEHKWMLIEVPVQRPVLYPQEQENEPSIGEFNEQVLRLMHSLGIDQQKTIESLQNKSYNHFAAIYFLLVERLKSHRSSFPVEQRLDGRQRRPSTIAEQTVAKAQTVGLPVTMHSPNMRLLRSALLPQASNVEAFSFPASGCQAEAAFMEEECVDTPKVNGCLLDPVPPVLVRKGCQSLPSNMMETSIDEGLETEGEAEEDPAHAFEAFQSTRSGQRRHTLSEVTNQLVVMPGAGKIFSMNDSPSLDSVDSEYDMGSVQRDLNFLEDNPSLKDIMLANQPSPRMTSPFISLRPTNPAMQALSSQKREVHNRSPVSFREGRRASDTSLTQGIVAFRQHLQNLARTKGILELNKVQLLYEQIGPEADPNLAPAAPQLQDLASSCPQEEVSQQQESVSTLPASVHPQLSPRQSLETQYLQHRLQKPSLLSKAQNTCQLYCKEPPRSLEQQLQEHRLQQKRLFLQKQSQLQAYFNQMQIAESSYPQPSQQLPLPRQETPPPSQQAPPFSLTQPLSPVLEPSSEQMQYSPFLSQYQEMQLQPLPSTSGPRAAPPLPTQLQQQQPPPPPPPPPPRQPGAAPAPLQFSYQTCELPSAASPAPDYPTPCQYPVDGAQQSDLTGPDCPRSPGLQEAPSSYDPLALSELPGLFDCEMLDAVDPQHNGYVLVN
OXSR1 (human), O95747 [T185E], sequence (O95747 whole entry T185E, looked up): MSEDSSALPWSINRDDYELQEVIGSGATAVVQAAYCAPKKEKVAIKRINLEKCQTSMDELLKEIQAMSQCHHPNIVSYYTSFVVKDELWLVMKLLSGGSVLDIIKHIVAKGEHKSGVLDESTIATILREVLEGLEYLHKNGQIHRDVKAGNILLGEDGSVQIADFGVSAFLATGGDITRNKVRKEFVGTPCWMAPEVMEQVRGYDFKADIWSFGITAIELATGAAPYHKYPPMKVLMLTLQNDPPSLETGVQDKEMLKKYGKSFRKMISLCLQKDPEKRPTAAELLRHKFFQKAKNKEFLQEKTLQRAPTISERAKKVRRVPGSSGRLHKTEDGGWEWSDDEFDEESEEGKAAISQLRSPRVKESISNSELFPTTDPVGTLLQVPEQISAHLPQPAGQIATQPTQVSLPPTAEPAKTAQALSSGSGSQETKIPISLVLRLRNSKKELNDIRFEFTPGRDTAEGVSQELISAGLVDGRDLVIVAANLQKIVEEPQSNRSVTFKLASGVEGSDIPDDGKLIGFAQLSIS
DDR2 (human), sequence (Q16832 whole entry, looked up): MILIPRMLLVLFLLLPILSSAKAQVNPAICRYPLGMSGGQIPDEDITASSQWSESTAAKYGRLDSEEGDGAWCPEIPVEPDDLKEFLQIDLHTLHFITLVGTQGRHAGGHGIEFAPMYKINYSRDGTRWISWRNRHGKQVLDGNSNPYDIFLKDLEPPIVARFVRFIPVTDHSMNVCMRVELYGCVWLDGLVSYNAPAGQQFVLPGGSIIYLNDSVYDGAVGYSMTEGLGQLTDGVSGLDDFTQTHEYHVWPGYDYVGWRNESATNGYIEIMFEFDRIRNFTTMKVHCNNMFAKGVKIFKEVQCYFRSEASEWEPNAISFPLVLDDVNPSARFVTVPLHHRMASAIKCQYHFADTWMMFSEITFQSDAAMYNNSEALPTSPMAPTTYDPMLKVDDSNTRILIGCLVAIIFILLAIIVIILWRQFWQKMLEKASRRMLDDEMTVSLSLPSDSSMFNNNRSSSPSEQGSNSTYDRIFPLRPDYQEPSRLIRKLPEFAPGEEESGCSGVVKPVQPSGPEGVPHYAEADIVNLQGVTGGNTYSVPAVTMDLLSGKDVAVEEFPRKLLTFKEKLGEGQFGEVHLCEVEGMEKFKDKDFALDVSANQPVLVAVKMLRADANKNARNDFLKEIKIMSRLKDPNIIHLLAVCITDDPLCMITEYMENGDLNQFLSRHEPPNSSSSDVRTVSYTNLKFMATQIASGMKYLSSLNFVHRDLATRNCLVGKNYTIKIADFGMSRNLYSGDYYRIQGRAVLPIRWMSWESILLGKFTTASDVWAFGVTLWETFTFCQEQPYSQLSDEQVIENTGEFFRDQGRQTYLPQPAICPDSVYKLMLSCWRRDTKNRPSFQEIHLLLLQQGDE

## CN1CCN(CCOc2cc(OC3CCOCC3)c3c(Nc4c(Cl)ccc5c4OCO5)ncnc3c2)CC1
IRAK1 (human); compound 0.1 µM
  residual activity: 84%
EIF2AK3 (human); compound 0.1 µM
  residual activity: 111%
STK33 (human); compound 0.1 µM
  residual activity: 105%
CDK9 CCNT1 (human)
  residual activity: 100%
MAP4K3 (human); compound 0.1 µM
  residual activity: 85%
TTBK2 (human); compound 0.1 µM
  residual activity: 94%
PRKCG (human); compound 0.1 µM
  residual activity: 103%
TESK1 (human); compound 0.1 µM
  residual activity: 94%
MYLK (human); compound 0.1 µM
  residual activity: 97%
SIK2 (human); compound 0.1 µM
  residual activity: 51%
TSSK1B (human); compound 0.1 µM
  residual activity: 115%
TLK1 (human); compound 0.1 µM
  residual activity: 107%
DDR2 (human); compound 0.1 µM
  residual activity: 20%
MAPK7 (human); compound 0.1 µM
  residual activity: 90%
ABL1 (human); compound 0.1 µM
  residual activity: 26%
[1]; compound 0.1 µM
  residual activity: 102%
ZAP70 (human); compound 0.1 µM
  residual activity: 122%
CSNK1G2 (human); compound 0.1 µM
  residual activity: 107%
MAP4K5 (human); compound 0.1 µM
  residual activity: 70%
PDGFRA (human); compound 0.1 µM
  residual activity: 101%
SIK3 (human); compound 0.1 µM
  residual activity: 92%
[2]; compound 0.1 µM
  residual activity: 102%
STK24 (human); compound 0.1 µM
  residual activity: 102%
STK16 (human); compound 0.1 µM
  residual activity: 108%
WNK1 (human); compound 0.1 µM
  residual activity: 99%
PTK6 (human); compound 0.1 µM
  residual activity: 31%
[3]; compound 0.1 µM
  residual activity: 90%
ULK1 (human); compound 0.1 µM
  residual activity: 99%
ULK2 (human); compound 0.1 µM
  residual activity: 109%

## Nc1cccc2c1CN(C1CCC(=O)NC1=O)C2=O (stereo not given)
IRAK1 (human); compound 1.0 µM
  residual activity: 96%
IRAK1 (human); compound 10.0 µM
  residual activity: 101%
EIF2AK3 (human); compound 1.0 µM
  residual activity: 86%
EIF2AK3 (human); compound 10.0 µM
  residual activity: 101%
STK33 (human); compound 1.0 µM
  residual activity: 128%
STK33 (human); compound 10.0 µM
  residual activity: 119%
MAP4K3 (human); compound 1.0 µM
  residual activity: 100%
MAP4K3 (human); compound 10.0 µM
  residual activity: 110%
TTBK2 (human); compound 10.0 µM
  residual activity: 101%
PRKCG (human); compound 1.0 µM
  residual activity: 108%
PRKCG (human); compound 10.0 µM
  residual activity: 112%
TESK1 (human); compound 1.0 µM
  residual activity: 77%
TESK1 (human); compound 10.0 µM
  residual activity: 77%
MYLK (human); compound 1.0 µM
  residual activity: 94%
MYLK (human); compound 10.0 µM
  residual activity: 94%
SIK2 (human); compound 1.0 µM
  residual activity: 83%
SIK2 (human); compound 10.0 µM
  residual activity: 91%
TSSK1B (human); compound 1.0 µM
  residual activity: 89%
TSSK1B (human); compound 10.0 µM
  residual activity: 100%
TLK1 (human); compound 1.0 µM
  residual activity: 95%
TLK1 (human); compound 10.0 µM
  residual activity: 106%
DDR2 (human); compound 1.0 µM
  residual activity: 102%
DDR2 (human); compound 10.0 µM
  residual activity: 102%
MAPK7 (human); compound 1.0 µM
  residual activity: 98%
MAPK7 (human); compound 10.0 µM
  residual activity: 107%
ABL1 (human); compound 1.0 µM
  residual activity: 96%
ABL1 (human); compound 10.0 µM
  residual activity: 101%
[1]; compound 1.0 µM
  residual activity: 91%
[1]; compound 10.0 µM
  residual activity: 112%
ZAP70 (human); compound 1.0 µM
  residual activity: 110%
ZAP70 (human); compound 10.0 µM
  residual activity: 116%
CSNK1G2 (human); compound 1.0 µM
  residual activity: 99%
CSNK1G2 (human); compound 10.0 µM
  residual activity: 90%
MAP4K5 (human); compound 1.0 µM
  residual activity: 109%
MAP4K5 (human); compound 10.0 µM
  residual activity: 115%
PDGFRA (human); compound 1.0 µM
  residual activity: 85%
PDGFRA (human); compound 10.0 µM
  residual activity: 82%
SIK3 (human); compound 1.0 µM
  residual activity: 91%
SIK3 (human); compound 10.0 µM
  residual activity: 94%
[2]; compound 1.0 µM
  residual activity: 106%
[2]; compound 10.0 µM
  residual activity: 102%
TTBK1 (human); compound 1.0 µM
  residual activity: 106%
TTBK1 (human); compound 10.0 µM
  residual activity: 118%
STK24 (human); compound 1.0 µM
  residual activity: 82%
STK24 (human); compound 10.0 µM
  residual activity: 84%
STK16 (human); compound 1.0 µM
  residual activity: 98%
STK16 (human); compound 10.0 µM
  residual activity: 100%
WNK1 (human); compound 1.0 µM
  residual activity: 104%
WNK1 (human); compound 10.0 µM
  residual activity: 106%
PTK6 (human); compound 10.0 µM
  residual activity: 114%
[3]; compound 1.0 µM
  residual activity: 105%
[3]; compound 10.0 µM
  residual activity: 115%
ULK1 (human); compound 1.0 µM
  residual activity: 104%
ULK1 (human); compound 10.0 µM
  residual activity: 103%
ULK2 (human); compound 1.0 µM
  residual activity: 106%
ULK2 (human); compound 10.0 µM
  residual activity: 105%
